Structures can show the parent of a compound that is named as a salt.
What was measured:
[1] = biological target: T1, human CYP11B2 (Homo sapiens, UniProt P19099); test: G-402 cellular enzyme assay, human CYP11B2 (aldosterone release, HTRF); format: cell-based; conditions: G-402 cells expressing human CYP11B2; 1 μM Deoxycorticosterone
T1 construct: expressed in transfected cells
T1 sequence (P19099 25-503): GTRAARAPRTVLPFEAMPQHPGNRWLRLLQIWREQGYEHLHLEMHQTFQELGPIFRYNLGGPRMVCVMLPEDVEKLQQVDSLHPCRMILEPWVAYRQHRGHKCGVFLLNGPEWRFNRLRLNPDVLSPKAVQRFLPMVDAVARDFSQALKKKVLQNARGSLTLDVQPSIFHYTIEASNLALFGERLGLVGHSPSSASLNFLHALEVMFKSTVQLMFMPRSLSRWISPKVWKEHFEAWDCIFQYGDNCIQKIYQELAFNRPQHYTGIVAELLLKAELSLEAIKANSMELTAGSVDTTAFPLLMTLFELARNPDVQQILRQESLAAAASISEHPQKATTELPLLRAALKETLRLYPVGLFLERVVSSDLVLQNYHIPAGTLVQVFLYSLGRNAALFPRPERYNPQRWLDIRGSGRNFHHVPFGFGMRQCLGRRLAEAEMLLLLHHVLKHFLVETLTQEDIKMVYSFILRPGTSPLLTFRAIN
Description: (§1) Herein we identified the use of the G-402 cell line as a host cell to ectopically express (transiently or stably) enzymes of the CYP11 family. Specifically we developed stable G-402 cells expressing ectopically human CYP11B1, human CYP11B2, human CYP11A1, cynomolgus CYP11B1 or cynomolgus CYP11B2 enzyme activity. Importantly the identified cell line G-402 expresses co-factors (adrenodoxin and adrenodoxin reductase) important for the activity of the CYP11 family and no relevant enzyme activity of the CYP11 family (in comparison to H295R cells) was detected in these cells. Therefore the G-402 cell line is uniquely suited as a host cell for the ectopic expression of enzymes from the CYP11 family.
(§2) G-402 cells can be obtained from ATCC(CRL-1440) and were originally derived from a renal leiomyoblastoma.
(§3) The expression plasmids contains the ORF for either human/cyno CYP11B1 or CYP11B2 under the control of a suitable promoter (CMV-promoter) and a suitable resistance marker (neomycin). Using standard techniques the expression plasmid is transfected into G-402 cells and these cells are then selected for expressing the given resistance markers. Individual cell-clones are then selected and assessed for displaying the desired enzymatic activity using 11-Deoxycorticosterone (Cyp11B2) or 11-Deoxycortisol (Cyp11B1) as a substrate.
(§4) G-402 cells expressing CYP11 constructs were established as described above and maintained in McCoy's 5a Medium Modified, ATCC Catalog No. 30-2007 containing 10% FCS and 400 μg/ml G418 (Geneticin) at 37° C. under an atmosphere of 5% CO2/95% air. Cellular enzyme assays were performed in DMEM/F12 medium containing 2.5% charcoal treated FCS and appropriate concentration of substrate (0.3-10 uM 11-Deoxycorticosterone, 11-Deoxycortisol or Corticosterone). For assaying enzymatic activity, cells were plated onto 96 well plates and incubated for 16 h. An aliquot of the supernatant is then transferred and analyzed for the concentration of the expected product (Aldosterone for CYP11B2; Cortisol for CYP11B1). The concentrations of these steroids can be determined using HTRF assays from CisBio analyzing either Aldosterone or Cortisol.
(§5) Inhibition of the release of produced steroids can be used as a measure of the respective enzyme inhibition by test compounds added during the cellular enzyme assay. The dose dependent inhibition of enzymatic activity by a compound is calculated by means of plotting added inhibitor concentrations (x-axes) vs. measured steroid/product level (y-axes). The inhibition is then calculated by fitting the following 4-parameter sigmoidal function (Morgan-Mercer-Flodin (MMF) model) to the raw data points using the least squares method:
(§6) [formula] wherein, A is the maximum y value, B is the EC50 factor determined using XLFit, C is the minimum y value and D is the slope value.
(§7) EC50 values for compounds claimed herein were tested with the G402-based assay system described. Cyp11B2 enzyme activity was tested in presence of 1 μM Deoxycorticosterone and variable amounts of inhibitors; Cyp11B1 enzyme activity was tested in presence of 1 μM Deoxycortisol and variable amounts of inhibitors.

[2] = biological target: T2, human CYP11B1 (Homo sapiens, UniProt P15538); test: G-402 cellular enzyme assay, human CYP11B1 (cortisol release, HTRF); format: cell-based; conditions: G-402 cells expressing human CYP11B1; 1 μM Deoxycortisol
T2 construct: expressed in transfected cells
T2 sequence (P15538 25-503): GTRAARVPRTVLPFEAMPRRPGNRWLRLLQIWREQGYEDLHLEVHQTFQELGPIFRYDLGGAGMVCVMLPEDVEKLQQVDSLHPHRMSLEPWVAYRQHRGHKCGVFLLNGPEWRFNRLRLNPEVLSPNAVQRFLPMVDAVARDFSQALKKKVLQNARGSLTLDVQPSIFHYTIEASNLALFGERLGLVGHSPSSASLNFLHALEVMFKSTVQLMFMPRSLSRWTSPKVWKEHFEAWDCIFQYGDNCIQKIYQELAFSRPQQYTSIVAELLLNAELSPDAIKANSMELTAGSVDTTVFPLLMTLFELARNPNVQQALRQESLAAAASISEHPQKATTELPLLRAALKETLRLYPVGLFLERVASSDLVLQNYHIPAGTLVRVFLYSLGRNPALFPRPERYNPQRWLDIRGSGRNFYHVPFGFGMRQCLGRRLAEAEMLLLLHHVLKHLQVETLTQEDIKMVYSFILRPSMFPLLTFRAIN
Description: as §1, §2, §3, §4, §5, §6, §7

EC50 [1] [nM]	EC50 [2] [nM]	SMILES
6	111	CN1C(=O)CCc2cc(-c3cncc(CNC(=O)c4ccccn4)c3)ccc21 [Example 97]
2	179	Cc1oncc1C(=O)NCc1cncc(-c2ccc3c(c2)CCC(=O)N3C)c1 [Example 101]
36	2860	Cc1noc(C)c1C(=O)NCc1cncc(-c2ccc3c(c2)CCC(=O)N3C)c1C [Example 223, 3,5-Dimethyl-isoxazole-4-carboxylic acid [4-methyl-5-(1-methyl-2-oxo-1,2,3,4-tetrahydro-quinolin-6-yl)-pyridin-3-ylmethyl]-amide]
4	1010	Cc1c(CN)cncc1-c1ccc2c(c1)CCC(=O)N2C [Example 222, 6-(5-Aminomethyl-4-methyl-pyridin-3-yl)-1-methyl-3,4-dihydro-1H-quinolin-2-one hydrochloride]
9	623	CCC(=O)NCc1cncc(-c2ccc3c(c2)CCC(=O)N3C)c1Cl [Example 265, N-[4-Chloro-5-(1-methyl-2-oxo-1,2,3,4-tetrahydro-quinolin-6-yl)-pyridin-3-ylmethyl]-propionamide]
78	712	Cc1nc(C(=O)NCc2cncc(-c3ccc4c(c3)CCC(=O)N4C)c2)co1 [Example 109]
3	81	CN1C(=O)CCc2cc(-c3cncc(CNC(=O)c4nc(Cl)ccc4Cl)c3)ccc21 [Example 116]
71	2570	CN1C(=O)CCc2cc(-c3cncc(CN)c3)ccc21 [Example 36, 6-(5-Aminomethyl-pyridin-3-yl)-1-methyl-3,4-dihydro-1H-quinolin-2-one]
14	261	CC(N[S@+]([O-])C(C)(C)C)c1cncc(-c2ccc3c(c2)CCC(=O)N3C)c1Cl (single isomer, unassigned) [Example 249, (R)-2-Methyl-propane-2-sulfinic acid {(R or S)-1-[4-chloro-5-(1-methyl-2-oxo-1,2,3,4-tetrahydro-quinolin-6-yl)-pyridin-3-yl]-ethyl}-amide]
3	94	COc1nc(Cl)cnc1C(=O)NCc1cncc(-c2ccc3c(c2)CCC(=O)N3C)c1 [Example 134]

The next lines start with the compound.

SMILES	EC50 [1] [nM]	EC50 [2] [nM]
CCS(=O)(=O)NCCOc1cncc(-c2cc3c(cc2F)N(C)C(=O)CC3)c1 [Example 243, Ethanesulfonic acid {2-[5-(7-fluoro-1-methyl-2-oxo-1,2,3,4-tetrahydro-quinolin-6-yl)-pyridin-3-yloxy]-ethyl}-amide]	1	26
CN1C(=O)CCc2cc(-c3cncc(CNC(=O)c4cnoc4C(F)(F)F)c3)ccc21 [Example 145]	175	3780
CN1C(=O)CCc2cc(-c3cncc(OC4CCN(C(=O)OC(C)(C)C)CC4)c3)ccc21 [Example 50, 4-[5-(1-Methyl-2-oxo-1,2,3,4-tetrahydro-quinolin-6-yl)-pyridin-3-yloxy]-piperidine-1-carboxylic acid tert-butyl ester]	3	24
CC(C)[C@H](CO)Nc1cncc(-c2ccc3c(c2)CCC(=O)N3C)c1 [Example 30, 6-[5-((R)-1-Hydroxymethyl-2-methyl-propylamino)-pyridin-3-yl]-1-methyl-3,4-dihydro-1H-quinolin-2-one]	170	10200
CN1C(=O)CCc2cc(-c3cncc(CNS(=O)(=O)c4cnn(C)c4)c3)ccc21 [Example 159, 1-Methyl-1H-pyrazole-4-sulfonic acid [5-(1-methyl-2-oxo-1,2,3,4-tetrahydro-quinolin-6-yl)-pyridin-3-ylmethyl]-amide]	180	7930
CN1C(=O)CCc2cc(-c3cncc(OC4CNC4)c3)ccc21 [Example 70, 6-[5-(Azetidin-3-yloxy)-pyridin-3-yl]-1-methyl-3,4-dihydro-1H-quinolin-2-one hydrochloride]	202	15600
CN1C(=O)CCc2cc(-c3cncc(CN4CCC[C@H]4COCC(F)(F)F)c3)ccc21 [Example 23]	32	390
CN1C(=O)CCc2cc(-c3cncc(CNC(=O)c4cnc(C(F)(F)F)cn4)c3)ccc21 [Example 126]	7	642
CCC(=O)NC(C)c1cncc(-c2cc3c(cc2F)N(C)C(=O)CC3)c1C (single isomer, unassigned) [Example 264, N-{(R or S)-1-[5-(7-Fluoro-1-methyl-2-oxo-1,2,3,4-tetrahydro-quinolin-6-yl)-4-methyl-pyridin-3-yl]ethyl}-propionamide]	24	2920
CCS(=O)(=O)NC1(c2cncc(-c3ccc4c(c3)CCC(=O)N4C)c2)CC1 [Example 166, Ethanesulfonic acid {1-[5-(1-methyl-2-oxo-1,2,3,4-tetrahydro-quinolin-6-yl)-pyridin-3-yl]-cyclopropyl}-amide]	22	1210
O=C1CCc2nc(-c3cccnc3)ccc2N1 [Example 33, 6-Pyridin-3-yl-3,4-dihydro-1H-[1,5]naphthyridin-2-one]	1260	> 10000
CN1C(=O)CCc2cc(-c3cncc(NCc4ccccc4)n3)c(F)cc21 [Example 27]	7	270
CC(C)[C@H](CO)Nc1cncc(-c2ccc3c(c2)CCC(=O)N3C)n1 [Example 31, 6-[6-((R)-1-Hydroxymethyl-2-methyl-propylamino)-pyrazin-2-yl]-1-methyl-3,4-dihydro-1H-quinolin-2-one]	172	> 3000
CN1C(=O)CCc2cc(-c3cncc(N4CC5(CN(C(=O)OC(C)(C)C)C5)C4)c3)ccc21 [Example 29]	260	5560
CCS(=O)(=O)N(C)CCOc1cncc(-c2ccc3c(c2)CCC(=O)N3C)c1 [Example 195, Ethanesulfonic acid methyl-{2-[5-(1-methyl-2-oxo-1,2,3,4-tetrahydro-quinolin-6-yl)-pyridin-3-yloxy]-ethyl}-amide]	1	56
CN1C(=O)CCc2cc(-c3cncc(CNS(=O)(=O)c4cn(C)cn4)c3)ccc21 [Example 157, 1-Methyl-1H-imidazole-4-sulfonic acid [5-(1-methyl-2-oxo-1,2,3,4-tetrahydro-quinolin-6-yl)-pyridin-3-ylmethyl]-amide]	463	3260
CN1C(=O)CCc2cc(-c3cncc(CNC(=O)c4ncccc4F)c3)ccc21 [Example 119]	6	75
